# Source: PubChem BioAssay (NCI)
#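 Here, GI50 denotes the concentration required for 50% inhibition of growth. TGI: total growth inhibition.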
# How the values were obtained:
# Assay in all cases: NCI-60 cell line screen, 384-well format
# OVCAR-4 ovarian = test system: OVCAR-4 ovarian
# HL-60(TB) leukemia = test system: HL-60(TB) leukemia
# IGROV1 ovarian = test system: IGROV1 ovarian
# MDA-MB-435 melanoma = test system: MDA-MB-435 melanoma
# NCI-H460 NSCLC = test system: NCI-H460 NSCLC
# MDA-MB-231 breast = test system: MDA-MB-231 breast
# T-47D breast = test system: T-47D breast
# HCC-2998 colon = test system: HCC-2998 colon
# TK-10 renal = test system: TK-10 renal
# NCI-H322M lung = test system: NCI-H322M lung
# DU-145 prostate = test system: DU-145 prostate
# SW-620 colon = test system: SW-620 colon
# MALME-3M melanoma = test system: MALME-3M melanoma
# UO-31 renal = test system: UO-31 renal
# HCT-15 colon = test system: HCT-15 colon
# CCRF-CEM leukemia = test system: CCRF-CEM leukemia
# HOP-92 NSCLC = test system: HOP-92 NSCLC
# HOP-62 NSCLC = test system: HOP-62 NSCLC
# PC-3 prostate = test system: PC-3 prostate
# ACHN renal = test system: ACHN renal
# SF-268 CNS = test system: SF-268 CNS
# NCI-H226 lung = test system: NCI-H226 lung
# M14 melanoma = test system: M14 melanoma
# A549 NSCLC = test system: A549 NSCLC
# HT29 colon = test system: HT29 colon
# RPMI-8226 leukemia = test system: RPMI-8226 leukemia
# NCI/ADR-RES ovarian = test system: NCI/ADR-RES ovarian
# UACC-62 melanoma = test system: UACC-62 melanoma
# UACC-257 melanoma = test system: UACC-257 melanoma
# A498 renal = test system: A498 renal
# SF-539 CNS = test system: SF-539 CNS
# RXF 393 renal = test system: RXF 393 renal
# NCI-H23 lung = test system: NCI-H23 lung
# U251 glioblastoma = test system: U251 glioblastoma
# OVCAR-3 ovarian = test system: OVCAR-3 ovarian
# SK-OV-3 ovarian = test system: SK-OV-3 ovarian
# HCT-116 colon = test system: HCT-116 colon
# COLO 205 colon = test system: COLO 205 colon
# SK-MEL-28 melanoma = test system: SK-MEL-28 melanoma
# KM12 colon = test system: KM12 colon
# LOX IMVI melanoma = test system: LOX IMVI melanoma
# CAKI-1 renal = test system: CAKI-1 renal
# OVCAR-8 ovarian = test system: OVCAR-8 ovarian
# MCF7 breast = test system: MCF7 breast
# SF-295 CNS = test system: SF-295 CNS
# BT-549 breast = test system: BT-549 breast
# 786-0 renal = test system: 786-0 renal
# SK-MEL-5 melanoma = test system: SK-MEL-5 melanoma
# EKVX NSCLC = test system: EKVX NSCLC
# HS 578T breast = test system: HS 578T breast
# SR leukemia = test system: SR leukemia
# K-562 leukemia = test system: K-562 leukemia
# SNB-75 CNS = test system: SNB-75 CNS
# NCI-H522 lung = test system: NCI-H522 lung
compound,measurement,setting,value
CCCCCCCCCCCCCCCC(=O)Nc1ccn([C@@H]2O[C@H](CO)[C@@H](O)[C@@H]2C#N)c(=O)n1,GI50,OVCAR-4 ovarian,28.1 µM
same,TGI,OVCAR-4 ovarian,> 100 µM
same,GI50,HL-60(TB) leukemia,0.368 µM
same,TGI,HL-60(TB) leukemia,1.4 µM
same,GI50,IGROV1 ovarian,12.7 µM
same,TGI,IGROV1 ovarian,86 µM
same,GI50,MDA-MB-435 melanoma,28.1 µM
same,TGI,MDA-MB-435 melanoma,> 100 µM
same,GI50,NCI-H460 NSCLC,0.143 µM
same,TGI,NCI-H460 NSCLC,10.1 µM
same,GI50,MDA-MB-231 breast,11.1 µM
same,TGI,MDA-MB-231 breast,> 100 µM
same,GI50,T-47D breast,35.1 µM
same,TGI,T-47D breast,> 100 µM
same,GI50,HCC-2998 colon,0.464 µM
same,TGI,HCC-2998 colon,10.6 µM
same,GI50,TK-10 renal,34.8 µM
same,TGI,TK-10 renal,> 100 µM
same,GI50,NCI-H322M lung,14.6 µM
same,TGI,NCI-H322M lung,31 µM
same,GI50,DU-145 prostate,0.751 µM
same,TGI,DU-145 prostate,21.7 µM
same,GI50,SW-620 colon,4.81 µM
same,TGI,SW-620 colon,> 100 µM
same,GI50,MALME-3M melanoma,10.5 µM
same,TGI,MALME-3M melanoma,28 µM
same,GI50,UO-31 renal,11.7 µM
same,TGI,UO-31 renal,45.7 µM
same,GI50,HCT-15 colon,0.946 µM
same,TGI,HCT-15 colon,66.9 µM
same,TGI,CCRF-CEM leukemia,0.12 µM
same,GI50,HOP-92 NSCLC,4.71 µM
same,TGI,HOP-92 NSCLC,35.3 µM
same,GI50,HOP-62 NSCLC,0.0542 µM
same,TGI,HOP-62 NSCLC,18.5 µM
same,GI50,PC-3 prostate,13.3 µM
same,TGI,PC-3 prostate,92.5 µM
same,GI50,ACHN renal,0.988 µM
same,TGI,ACHN renal,39.1 µM
same,GI50,SF-268 CNS,0.43 µM
same,TGI,SF-268 CNS,19.9 µM
same,GI50,NCI-H226 lung,13.3 µM
same,TGI,NCI-H226 lung,54.9 µM
same,GI50,M14 melanoma,3 µM
same,TGI,M14 melanoma,22.4 µM
same,GI50,A549 NSCLC,1.32 µM
same,TGI,A549 NSCLC,20 µM
same,GI50,HT29 colon,12.5 µM
same,TGI,HT29 colon,> 100 µM
same,GI50,RPMI-8226 leukemia,4.4 µM
same,TGI,RPMI-8226 leukemia,20.6 µM
same,GI50,NCI/ADR-RES ovarian,11.1 µM
same,TGI,NCI/ADR-RES ovarian,> 100 µM
same,GI50,UACC-62 melanoma,0.655 µM
same,TGI,UACC-62 melanoma,23.5 µM
same,GI50,UACC-257 melanoma,20.1 µM
same,TGI,UACC-257 melanoma,74.6 µM
same,GI50,A498 renal,0.74 µM
same,TGI,A498 renal,15.8 µM
same,GI50,SF-539 CNS,4.82 µM
same,TGI,SF-539 CNS,38.3 µM
same,GI50,RXF 393 renal,16.6 µM
same,TGI,RXF 393 renal,> 100 µM
same,GI50,NCI-H23 lung,0.244 µM
same,TGI,NCI-H23 lung,15.5 µM
same,GI50,U251 glioblastoma,0.314 µM
same,TGI,U251 glioblastoma,23.5 µM
same,GI50,OVCAR-3 ovarian,10.3 µM
same,TGI,OVCAR-3 ovarian,37.9 µM
same,GI50,SK-OV-3 ovarian,1.15 µM
same,TGI,SK-OV-3 ovarian,39.1 µM
same,GI50,HCT-116 colon,0.454 µM
same,TGI,HCT-116 colon,18.8 µM
same,GI50,COLO 205 colon,0.325 µM
same,TGI,COLO 205 colon,> 100 µM
same,GI50,SK-MEL-28 melanoma,6.96 µM
same,TGI,SK-MEL-28 melanoma,30.1 µM
same,GI50,KM12 colon,6.5 µM
same,TGI,KM12 colon,35.2 µM
same,GI50,LOX IMVI melanoma,3.42 µM
same,TGI,LOX IMVI melanoma,17.7 µM
same,GI50,CAKI-1 renal,2.44 µM
same,TGI,CAKI-1 renal,43.6 µM
same,GI50,OVCAR-8 ovarian,0.292 µM
same,TGI,OVCAR-8 ovarian,18.4 µM
same,GI50,MCF7 breast,1.33 µM
same,TGI,MCF7 breast,24.3 µM
same,GI50,SF-295 CNS,0.716 µM
same,TGI,SF-295 CNS,> 100 µM
same,GI50,BT-549 breast,5.56 µM
same,TGI,BT-549 breast,24.2 µM
same,GI50,786-0 renal,0.0598 µM
same,TGI,786-0 renal,29.8 µM
same,GI50,SK-MEL-5 melanoma,7.71 µM
same,TGI,SK-MEL-5 melanoma,21 µM
same,GI50,EKVX NSCLC,28.4 µM
same,TGI,EKVX NSCLC,> 100 µM
same,GI50,HS 578T breast,1.58 µM
same,TGI,HS 578T breast,20.4 µM
same,GI50,SR leukemia,0.139 µM
same,TGI,SR leukemia,0.339 µM
same,GI50,K-562 leukemia,2.52 µM
same,TGI,K-562 leukemia,17.7 µM
same,GI50,SNB-75 CNS,4.66 µM
same,TGI,SNB-75 CNS,52.5 µM
same,GI50,NCI-H522 lung,6.11 µM
same,TGI,NCI-H522 lung,23.4 µM
